“And” between values parts separate entries of the source, which are not always exact repeats. Equal entries are not always repeated.
Assays:
CB2 receptor [1] = target: T1, CB2 receptor (Homo sapiens, UniProt P34972); test: Binding assay for CB2 ([3H]-CP-55,940 displacement, SK-N-MC membranes)
T1 construct: expressed in transfected cells; host or cells: SK-N-MC cells, stably transfected with pcDNA3 CB-2 (human)
Experimental: The human CB1 and CB2 receptors were stably expressed in SK-N-MC cells transfected with pcDNA3 CB-1 (human) or pcDNA3 CB-2 (human). The cells were grown in T-180 cell culture flasks under standard cell culture conditions at 37° C. in a 5% CO2 atmosphere. The cells were harvested by trysinization and homogenized in a homogenization buffer (10 mM Tris, 0.2 mM MgCl2, 5 mM KCl, with protease inhibitors aprotinin, leupeptin, pepstatin A and bacitracin) and centrifuged (2000 g). The supernatant was then centrifuged in 2M sucrose (31,300 g) to produce a semi-purified membrane pellet. The pellet was resuspended in homogenization and stored at −80° C.
On the day of the assay, the pellet was thawed on ice and diluted in assay buffer (50 mM Tris-HCl, 5 mM MgCl2, 2.5 mM EDTA, 0.5 mg/mL fatty acid free bovine serum albumin, pH 7.5). The diluted membrane pellet was added with buffer, either a test compound or vehicle standard and the radioligand [H]^3+-CP-55,940 (0.2 nM) to the wells of a 96-well polypropylene plate. Non-specific binding was measured in wells containing WIN 55,212 (10 uM). The plate was covered and incubated for 90 minutes at 30° C. The contents were then aspirated onto a Packard Unifilter GF/C filter bottom plate prewet with 0.5% polyethyleneimine. The wells of the polypropylene plate were rinsed and aspirated seven times with a 0.9% saline-0.5% Tween 20 solution. The Unifilter plate was dried, scintillation cocktail was added to each well and the counts representing binding were quantitated in a TopCount scintillation counter.
For compounds tested, an IC50 binding value was obtained from percent inhibition studies in which various test concentrations were used. The binding value was calculated by linear regression.
For compounds without an IC50 binding value, the percent inhibition (%) was obtained at a test concentration of ^(1)10 μM, ^(2)1 μM, ^(3)0.2 μM, ^(4)0.003 μM, ^(5) represents an average value.

CB2 receptor [2] = target: T1, CB2 receptor; test: Functional cell-based CRE β-gal assay, CB2 (adenylate cyclase activity)
Text: The CB1 and CB2 receptors are G-protein coupled receptors (GPCR), which influence cell function via the Gi-protein. These receptors modulate the activity of intracellular adenylate cyclase, which in turn produces the intracellular signal messenger cyclic-AMP (cAMP).
At baseline, or during non-ligand bound conditions, these receptors are constitutively active and tonically suppress adenylate cyclase activity. The binding of an agonist causes further receptor activation and produces additional suppression of adenylate cyclase activity. The binding of an inverse agonist inhibits the constitutive activity of the receptors and results in an increase in adenylate cyclase activity.
By monitoring intracellular adenylate cyclase activity, the ability of compounds to act as agonists or inverse agonists can be determined.
Test compounds were evaluated in SK-N-MC cells which, using standard transfection procedures, were stably transfected with human cDNA for pcDNA3-CRE β-gal and pcDNA3 CB1 receptor (human) or pcDNA3 CB2 receptor (human). By expressing CRE β-gal, the cells produced β-galactosidase in response to CRE promoter activation by cAMP. Cells expressing CRE β-gal and either the human CB1 or CB2 receptor will produce less β-galactosidase when treated with a CB1/CB2 agonist and will produce more β-galactosidase when treated with a CB1/CB2 inverse agonist.
The cells were grown in 96-well plates under standard cell culture conditions at 37° C. in a 5% CO2 atmosphere. After 3 days, the media was removed and a test compound in media (wherein the media was supplemented with 2 mM L-glutamine, […] sodium pyruvate, 0.1% low fatty acid FBS (fetal bovine serum) and antibiotics) was added to the cell. The plates were incubated for 30 minutes at 37° C. and the plate cells were then treated with forskolin over a 4-6 hour period, then washed and lysed. The β-galactosidase activity was quantitated using commercially available kit reagents (Promega Corp. Madison, Wis.) and a Vmax Plate Reader (Molecular Devices, Inc).
For cells expressing CRE β-gal and the CB2 receptor, CB2 agonists reduced β-galactosidase activity in a dose-dependent manner and CB2 inverse agonists increase β-galactosidase activity in a dose-dependent manner.
The change in β-galactosidase activity was determined by setting a vehicle treated cell's activity value at 100% and expressing the β-galactosidase activity measured in a corresponding compound treated cell as a percent of the vehicle treated cell activity.
The EC50 value for functional activity for compounds tested was calculated by linear regression and was obtained from studies in which varying compound concentrations were used.
The value of 29% for Compound 5 represents change in functional activity and was obtained from a study in which one compound concentration was used.

T1 sequence (P34972 whole entry): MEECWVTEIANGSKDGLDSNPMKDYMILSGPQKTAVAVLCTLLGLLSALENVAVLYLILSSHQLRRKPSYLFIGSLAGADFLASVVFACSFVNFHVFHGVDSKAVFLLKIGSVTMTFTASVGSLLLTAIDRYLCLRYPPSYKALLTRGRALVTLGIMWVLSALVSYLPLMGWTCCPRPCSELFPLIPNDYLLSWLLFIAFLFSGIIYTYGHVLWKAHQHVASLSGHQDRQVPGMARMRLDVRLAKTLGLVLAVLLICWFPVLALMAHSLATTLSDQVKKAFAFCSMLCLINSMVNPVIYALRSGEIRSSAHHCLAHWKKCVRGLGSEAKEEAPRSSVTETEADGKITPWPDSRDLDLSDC

In the case of `O=C(NCC12CC3CC(CC(C3)C1)C2)c1nn(C2CCCCC2)c2c1CCCCCC2` [Cpd 2, 1-cyclohexyl-4,5,6,7,8,9-hexahydro-1H-cyclooctapyrazole-3-carboxylic acid (adamantan-1-ylmethyl)-amide], the IC50 (CB2 receptor [1]; Cannabinoid CB2 Receptor Binding IC50, radioligand CP-55,940 0.2 nM, SK-N-MC membranes) is reported as 1 nM and 6 nM and 10 nM, the inhibition at 0.003 µM (CB2 receptor [1]; read-out: CB2 receptor binding percent inhibition) is reported as 86% and the EC50 (CB2 receptor [2]) is reported as 6.6 nM.

— US7825151B2, “Hexahydro-cyclooctyl pyrazole cannabinoid modulators” (priority 2005, dated 2010)
